Measurements reported in ChEMBL document CHEMBL5532643, “Design and synthesis of etrasimod derivatives as potent antibacterial agents against Gram-positive bacteria” (Eur J Med Chem, 2024).
Converted amounts (≈) assume the structure as drawn. “And” between values parts separate entries of the source, which are not always exact repeats. Equal entries are not always repeated.

What was measured:
Assay type in all cases: functional
[1] = tested on: Enterococcus faecalis; assay: Antibacterial activity against Enterococcus faecalis ATCC 29212 assessed as reduction in bacterial growth incubated for 18 to 20 hrs by broth microdilution assay; conditions: time 18-20 hrs
[2] = tested on: Enterococcus faecalis; assay: Antibacterial activity against vancomycin-resistant Enterococcus faecalis ATCC 51575 assessed as reduction in bacterial growth incubated for 18 to 20 hrs by broth microdilution assay; conditions: time 18-20 hrs
[3] = tested on: Enterococcus faecium; assay: Antibacterial activity against vancomycin-resistant Enterococcus faecium ATCC 700221 assessed as reduction in bacterial growth incubated for 18 to 20 hrs by broth microdilution assay; conditions: time 18-20 hrs
[4] = tested on: Staphylococcus aureus; assay: Antibacterial activity against Staphylococcus aureus ATCC 25923 assessed as reduction in bacterial growth incubated for 18 to 20 hrs by broth microdilution assay; conditions: time 18-20 hrs
[5] = tested on: Staphylococcus aureus; assay: Antibacterial activity against Staphylococcus aureus ATCC 25923 assessed as inhibition of bacterial growth at 40 uM incubated for 18 to 24 hrs by broth microdilution assay relative to control; conditions: time 18-24 hrs
[6] = tested on: Staphylococcus aureus; assay: Antibiofilm activity against Staphylococcus aureus ATCC 25923 assessed as inhibition of biofilm viability at 100 uM incubated for 18 to 20 hrs by resazurin staining based assay; conditions: time 18-20 hrs
[7] = tested on: Staphylococcus aureus; assay: Antibiofilm activity against Staphylococcus aureus ATCC 25923 assessed as inhibition of biofilm biomass at 100 uM incubated for 18 to 20 hrs by crystal violet staining based assay; conditions: time 18-20 hrs
[8] = tested on: Staphylococcus aureus; assay: Antibacterial activity against Staphylococcus aureus ATCC 43300 assessed as reduction in bacterial growth incubated for 18 to 20 hrs by broth microdilution assay; conditions: time 18-20 hrs
[9] = tested on: Staphylococcus aureus; assay: Antibacterial activity against […] Staphylococcus aureus ATCC 43300 assessed as reduction in bacterial growth incubated for 18 to 20 hrs by broth microdilution assay; conditions: time 18-20 hrs
[10] = tested on: Staphylococcus epidermidis; assay: Antibacterial activity against Staphylococcus epidermidis RP62A assessed as reduction in bacterial growth incubated for 18 to 20 hrs by broth microdilution assay; conditions: time 18-20 hrs
[11] = tested on: Staphylococcus epidermidis; assay: Antibacterial activity against […] Staphylococcus epidermidis RP62A assessed as reduction in bacterial growth incubated for 18 to 20 hrs by broth microdilution assay; conditions: time 18-20 hrs
[12] = tested on: Pseudomonas aeruginosa; assay: Antibacterial activity against Pseudomonas aeruginosa ATCC 15442 assessed as reduction in bacterial growth incubated for 18 to 20 hrs by broth microdilution assay; conditions: time 18-20 hrs
[13] = tested on: Acinetobacter baumannii; assay: Antibacterial activity against Acinetobacter baumannii NCTC 13423 assessed as reduction in bacterial growth incubated for 18 to 20 hrs by broth microdilution assay; conditions: time 18-20 hrs

Structure (SMILES)	MIC [1] [µM]	MIC [2] [µM]	MIC [3] [µM]	MIC [4]	inhibition at 40 µM [5] [%]	inhibition at 100 µM [6] [%]	inhibition at 100 µM [7] [%]	MIC [8] [µM]	MIC [9] [µM]	MIC [10] [µM]	MIC [11] [µM]	MIC [12] [µM]	MIC [13] [µM]
CC(=O)NC[C@H]1CN(c2ccc(N3CCOCC3)c(F)c2)C(=O)O1 [LINEZOLID]	5 (≈ 1.69 µg/mL)	5 (≈ 1.69 µg/mL)	5 (≈ 1.69 µg/mL)	–	–	–	–	–	–	–	–	–	–
CC(C)Cc1ccc(COc2ccc3[nH]c4c(c3c2)CCC4CC(=O)O)cc1C(F)(F)F (stereo unspecified)	–	–	–	10 µM and 4.5 µg/mL	≤ 90	> 90	> 90	–	–	–	–	–	–
O=C(O)CC1CCCc2c1[nH]c1ccc(OCc3ccc(C4CCCC4)c(C(F)(F)F)c3)cc21 (stereo unspecified)	5 (≈ 2.36 µg/mL)	10 (≈ 4.72 µg/mL)	5 (≈ 2.36 µg/mL)	5 µM and 2.4 µg/mL	≤ 90	> 90	> 90	5 (≈ 2.36 µg/mL)	5 (≈ 2.36 µg/mL)	10 (≈ 4.72 µg/mL)	5 (≈ 2.36 µg/mL)	> 200	> 200
O=C(O)CC1CCc2c1[nH]c1ccc(OCc3ccc(C4CCCC4)c(F)c3)cc21 (stereo unspecified)	–	–	–	10 µM and 4.1 µg/mL	≤ 90	> 90	> 90	–	–	–	–	–	–
Cc1nc(-c2ccc(C(F)(F)F)cc2)sc1COc1ccc2[nH]c3c(c2c1)CCC3CC(=O)O (stereo unspecified)	–	–	–	20 µM and 9.7 µg/mL	≤ 90	> 90	> 90	–	–	–	–	–	–
FC(F)(F)c1cc(COc2ccc3[nH]ccc3c2)ccc1C1CCCC1	–	–	–	> 40 µM and > 14.4 µg/mL	≤ 90	> 90	> 90	–	–	–	–	–	–
O=C(O)Cc1c[nH]c2ccc(OCc3ccc(C4CCCC4)c(C(F)(F)F)c3)cc12	–	–	–	20 µM and 8.3 µg/mL	≤ 90	> 90	> 90	–	–	–	–	–	–
N#Cc1cc(COc2ccc3[nH]c4c(c3c2)CCC4CC(=O)O)ccc1C1CCCC1 (stereo unspecified)	–	–	–	40 µM and 16.6 µg/mL	≤ 90	> 90	> 90	–	–	–	–	–	–
CCCCc1ccc(COc2ccc3[nH]c4c(c3c2)CCC4CC(=O)O)cc1C(F)(F)F (stereo unspecified)	–	–	–	10 µM and 4.5 µg/mL	≤ 90	> 90	> 90	–	–	–	–	–	–
O=C(O)CC1CCc2c1[nH]c1ccc(OCc3ccc(OCC4CCCC4)c(C(F)(F)F)c3)cc21 (stereo unspecified)	–	–	–	10 µM and 4.9 µg/mL	≤ 90	> 90	> 90	–	–	–	–	–	–
NC(=O)CC1CCc2c1[nH]c1ccc(OCc3ccc(C4CCCC4)c(C(F)(F)F)c3)cc21 (stereo unspecified)	–	–	–	20 µM and 9.1 µg/mL	≤ 90	> 90	> 90	–	–	–	–	–	–
O=C(O)CC1CCc2c1[nH]c1ccc(OCc3ccc(-c4cccs4)c(C(F)(F)F)c3)cc21 (stereo unspecified)	–	–	–	10 µM and 4.7 µg/mL	≤ 90	> 90	> 90	–	–	–	–	–	–
O=C(O)CC1CCc2c1[nH]c1ccc(OCc3ccc(C4CCCCC4)c(C(F)(F)F)c3)cc21 (stereo unspecified)	–	–	–	5 µM and 2.4 µg/mL	≤ 90	> 90	> 90	–	–	–	–	–	–
O=C(O)CC1CCc2c1[nH]c1ccc(OCc3ccc(N4CCOCC4)c(C(F)(F)F)c3)cc21 (stereo unspecified)	–	–	–	> 40 µM and > 19 µg/mL	≤ 90	> 90	> 90	–	–	–	–	–	–
O=C(O)Cc1ccc(OCc2ccc(C3CCCC3)c(C(F)(F)F)c2)cn1	–	–	–	> 40 µM and > 15.2 µg/mL	≤ 90	> 90	> 90	–	–	–	–	–	–
O=C(O)c1cc2cc(OCc3ccc(C4CCCC4)c(C(F)(F)F)c3)ccc2[nH]1	10 (≈ 4.03 µg/mL)	10 (≈ 4.03 µg/mL)	10 (≈ 4.03 µg/mL)	5 µM and 2 µg/mL	≤ 90	> 90	> 90	5 (≈ 2.02 µg/mL)	5 (≈ 2.02 µg/mL)	5 (≈ 2.02 µg/mL)	2.5 (≈ 1.01 µg/mL)	> 200	> 200
